# From patent publication US20260315434A1, “USE OF GUAIACOL SESQUITERPENE LACTONE DERIVATIVES” (NANJING UNIVERSITY OF CHINESE MEDICINE, priority 2023, published 2026)
# What was measured:
# T cells / MDSCs = test: Promotion of T cell proliferation in a co-culture model of MDSCs and T cells; format: cell-based, mouse; conditions: for activation at 1 µM: Mus musculus, T-cell, 12 h, read-out: T-cell proliferation rate (%), 1 μM, MDSCs treated 12 hours, co-culture of MDSCs and T cells, compared to the control group
# Experimental: Under sterile conditions, the tibia was removed, both ends of the bone were cut, and bone marrow was repeatedly flushed into a 15 mL centrifuge tube using a 1 mL syringe filled with culture medium. Centrifuge at 1600 rpm for 5 min to collect bone marrow cells. […] The spleen cell suspension was then transferred into a 15 mL centrifuge tube. Centrifuge at 1600 rpm for 5 min to collect T cells. Wash twice with 1×PBS. Resuspend the centrifuged T cells in 1 mL PBS and add 1 mL of 10 μM CFDA-SE solution. Incubate at room temperature for 8 min. […] After drug administration, collect MDSC cells into centrifuge tubes. Centrifuge at 1600 rpm for 5 min, remove supernatant, resuspend in 1 mL fresh medium, and plate. Add 1 mL stimulated activated T cells (1:1 ratio) for 48 h co-culture. After incubation, collect cells into centrifuge tubes, wash twice with PBS, and incubate with Fc antibody at room temperature in the dark for 10 min. Add CD3-labeled flow cytometry antibody and incubate at 4° C. in the dark for 30 min. After incubation, wash cells with PBS, resuspend in 300 μL PBS, and analyze by flow cytometry.
# [1] = Conversion (release) of prodrug salts to parent compound in mouse plasma; format: in vitro ADME; conditions: 37 °C; for metabolised at 1 h / metabolised at 2 h / metabolised at 4 h / metabolised at 8 h / metabolised at 12 h: mouse, plasma, read-out: Release rate (conversion to Compound 1)
# Experimental: (§1) Pharmaceutically acceptable salts of guaiane-type sesquiterpene lactone derivatives were selected and evaluated for their conversion rates to Compound 1 and Compound 83 in plasma and HEPES buffer, with results shown in Tables 2-1, 2-2, 3-1, and 3-2.
# Plasma Preparation: Collect mouse plasma into an EP tube pre-loaded with sodium heparin, centrifuge at 8000 rpm for 10 minutes at 4° C., and then collect the supernatant.
# (§2) Sample Analysis: Dissolve 0.6 mg of the compound in 250 μL of deionized water separately. Add 250 μL of mouse serum or HEPES 7.4 solution to the sample, incubate at a constant temperature of 37° C., and collect samples at different time points. Pipette 20 μL of the sample to an EP tube, add 60 μL of methanol, vortex to mix thoroughly, and centrifuge at 12,000 rpm at 4° C. for 10 min. At 1 h, 2 h, 4 h, 8 h, and 12 h respectively, collect the supernatant for HPLC analysis. Inject 10 μL of sample and record the corresponding peak areas. Chromatographic conditions: Hanbang C18 column (4.6×250 mm, 5 μm); mobile phase: acetonitrile: […] ammonium formate solution=60:40; flow rate 1.0 mL/min; detection wavelength 210 nm; column temperature 30° C.
# [2] = Conversion (release) of prodrug salts to parent compound in HEPES buffer pH 7.4; format: in vitro ADME; conditions: for degraded at 1 h / degraded at 2 h / degraded at 4 h / degraded at 8 h / degraded at 12 h: hepes buffer, pH 7.4, HEPES pH 7.4, 37 °C, read-out: Release rate (conversion to Compound 1); for Release rate (conversion to Compound 1): HEPES pH 7.4, 37 °C
# Experimental: as §1
# Experimental Method: Preparation of HEPES 7.4 Solution: Dissolve 1.6 g NaCl, 0.074 g KCl, 0.027 g Na2HPO4, 0.2 g glucose, and 1 g 4-(2-Hydroxyethyl)piperazine-1-ethanesulfonic acid (HEPES) solution in 90 mL distilled water. Adjust the pH to 7.4 using 0.5 M NaOH, then dilute to a final volume 100 mL with distilled water.
# as §2
smiles,measurement,setting,value
C[C@@]12CC[C@@H]3[C@H](OC(=O)[C@H]3CN3CCNCC3)[C@@H]3[C@]1(CC[C@@]3(C)O)C2 [Compound 7],activation at 1 µM,T cells / MDSCs,0 to 20%
C[C@@]12CC[C@@H]3[C@H](OC(=O)[C@H]3CN3CCCC3)[C@@H]3[C@]1(CC[C@@]3(C)O)C2 [Compound 22],metabolised at 1 h,[1]; 1 h,7.4%
same,metabolised at 2 h,[1]; 2 h,16.8%
same,metabolised at 4 h,[1]; 4 h,27.6%
same,metabolised at 8 h,[1]; 8 h,46.3%
same,metabolised at 12 h,[1]; 12 h,57.7%
same,degraded at 1 h,[2]; 1 h,6.4%
same,degraded at 2 h,[2]; 2 h,14.8%
same,degraded at 4 h,[2]; 4 h,26.6%
same,degraded at 8 h,[2]; 8 h,41.3%
same,degraded at 12 h,[2]; 12 h,53.7%
C[C@@]12CC[C@@H]3[C@H](OC(=O)[C@H]3CN3CCNCC3)[C@@H]3[C@]1(CC[C@@]3(C)O)C2 [Compound 26],metabolised at 1 h,[1]; 1 h,7.8%
same,metabolised at 2 h,[1]; 2 h,17.1%
same,metabolised at 4 h,[1]; 4 h,29.3%
same,metabolised at 8 h,[1]; 8 h,48.5%
same,metabolised at 12 h,[1]; 12 h,65.6%
same,degraded at 1 h,[2]; 1 h,6.8%
same,degraded at 2 h,[2]; 2 h,16.1%
same,degraded at 4 h,[2]; 4 h,27.3%
same,degraded at 8 h,[2]; 8 h,43.5%
same,degraded at 12 h,[2]; 12 h,55.6%
CCN1CCN(C[C@@H]2C(=O)O[C@H]3[C@H]2CC[C@@]2(C)C[C@]24CC[C@@](C)(O)[C@H]34)CC1 [Compound 27],metabolised at 1 h,[1]; 1 h,7.9%
same,metabolised at 2 h,[1]; 2 h,17.4%
same,metabolised at 4 h,[1]; 4 h,28.4%
same,metabolised at 8 h,[1]; 8 h,48.2%
same,metabolised at 12 h,[1]; 12 h,59.1%
same,degraded at 1 h,[2]; 1 h,6.9%
same,degraded at 2 h,[2]; 2 h,15.4%
same,degraded at 4 h,[2]; 4 h,27.4%
same,degraded at 8 h,[2]; 8 h,42.2%
same,degraded at 12 h,[2]; 12 h,54.8%
CCN(CC)C[C@@H]1C(=O)O[C@H]2[C@H]1CC[C@@]1(C)C[C@]13CC[C@@](C)(O)[C@H]23 [Compound 28],metabolised at 1 h,[1]; 1 h,6.8%
same,metabolised at 2 h,[1]; 2 h,14.5%
same,metabolised at 4 h,[1]; 4 h,24.4%
same,metabolised at 8 h,[1]; 8 h,40.4%
same,metabolised at 12 h,[1]; 12 h,49.1%
same,degraded at 1 h,[2]; 1 h,6.8%
same,degraded at 2 h,[2]; 2 h,14.5%
same,degraded at 4 h,[2]; 4 h,24.4%
same,degraded at 8 h,[2]; 8 h,40.4%
same,degraded at 12 h,[2]; 12 h,50%
CN(C)C[C@@H]1C(=O)O[C@H]2[C@H]1CC[C@@]1(C)C[C@]13CC[C@@](C)(O)[C@H]23 [Compound 39],metabolised at 1 h,[1]; 1 h,6.6%
same,metabolised at 2 h,[1]; 2 h,14%
same,metabolised at 4 h,[1]; 4 h,26.2%
same,metabolised at 8 h,[1]; 8 h,43.6%
same,metabolised at 12 h,[1]; 12 h,52.8%
same,Release rate (conversion to Compound 1),"[2]; 1 h, 60 min",6.6%
same,degraded at 2 h,[2]; 2 h,15%
same,degraded at 4 h,[2]; 4 h,26.8%
same,degraded at 8 h,[2]; 8 h,42.7%
same,degraded at 12 h,[2]; 12 h,54.3%
CN(C)C[C@@H]1C(=O)O[C@H]2[C@H]1CC[C@@]1(C)C[C@]13CC[C@@](C)(O)[C@H]23 [Compound 40],Release rate (conversion to Compound 1),"[1]; 1 h, 60 min",6.7%
same,Release rate (conversion to Compound 1),"[1]; 2 h, 120 min",14.2%
same,Release rate (conversion to Compound 1),"[1]; 4 h, 240 min",26.8%
same,Release rate (conversion to Compound 1),"[1]; 8 h, 480 min",44.0%
same,Release rate (conversion to Compound 1),"[1]; 12 h, 720 min",52.6%
same,Release rate (conversion to Compound 1),"[2]; 1 h, 60 min",6.8%
same,Release rate (conversion to Compound 1),"[2]; 2 h, 120 min",14.6%
same,Release rate (conversion to Compound 1),"[2]; 4 h, 240 min",26.2%
same,Release rate (conversion to Compound 1),"[2]; 8 h, 480 min",44.0%
same,Release rate (conversion to Compound 1),"[2]; 12 h, 720 min",50.2%
CN(C)C[C@@H]1C(=O)O[C@H]2[C@H]1CC[C@@]1(C)C[C@]13CC[C@@](C)(O)[C@H]23 [Compound 41],Release rate (conversion to Compound 1),"[1]; 1 h, 60 min",7.8%
same,Release rate (conversion to Compound 1),"[1]; 2 h, 120 min",17.2%
same,Release rate (conversion to Compound 1),"[1]; 4 h, 240 min",28.0%
same,Release rate (conversion to Compound 1),"[1]; 8 h, 480 min",46.1%
same,Release rate (conversion to Compound 1),"[1]; 12 h, 720 min",54.8%
same,Release rate (conversion to Compound 1),"[2]; 1 h, 60 min",7.0%
same,Release rate (conversion to Compound 1),"[2]; 2 h, 120 min",16.2%
same,Release rate (conversion to Compound 1),"[2]; 4 h, 240 min",27.3%
same,Release rate (conversion to Compound 1),"[2]; 8 h, 480 min",43.4%
same,Release rate (conversion to Compound 1),"[2]; 12 h, 720 min",53.2%
CN(C)C[C@@H]1C(=O)O[C@H]2[C@H]1CC[C@@]1(C)C[C@]13CC[C@@](C)(O)[C@H]23 [Compound 42],Release rate (conversion to Compound 1),"[1]; 1 h, 60 min",6.3%
same,Release rate (conversion to Compound 1),"[1]; 2 h, 120 min",14.2%
same,Release rate (conversion to Compound 1),"[1]; 4 h, 240 min",26.2%
same,Release rate (conversion to Compound 1),"[1]; 8 h, 480 min",41.0%
same,Release rate (conversion to Compound 1),"[1]; 12 h, 720 min",47.2%
same,Release rate (conversion to Compound 1),"[2]; 1 h, 60 min",7.0%
same,Release rate (conversion to Compound 1),"[2]; 2 h, 120 min",15.0%
same,Release rate (conversion to Compound 1),"[2]; 4 h, 240 min",25.2%
same,Release rate (conversion to Compound 1),"[2]; 8 h, 480 min",42.8%
same,Release rate (conversion to Compound 1),"[2]; 12 h, 720 min",52.3%
CC1CCN(C[C@@H]2C(=O)O[C@H]3[C@H]2CC[C@@]2(C)C[C@]24CC[C@@](C)(O)[C@H]34)CC1 [Compound 43],T-cell proliferation rate (%),"T cells / MDSCs; 1 μM, MDSCs treated 12 hours, co-culture of MDSCs and T cells, compared to the control group",+ (T-cell proliferation rate within the 0-20% range compared to the control group)
CC(C)(C)OC(=O)N1CCN(C[C@@H]2C(=O)O[C@H]3[C@H]2CC[C@@]2(C)C[C@]24CC[C@@](C)(O)[C@H]34)CC1 [Compound 44],activation at 1 µM,T cells / MDSCs,0 to 20%
CN(C)C[C@@H]1C(=O)O[C@H]2[C@H]1CC[C@@]1(C)C[C@]13C[C@@H](O)[C@@](C)(O)[C@H]23 [Compound 60],activation at 1 µM,T cells / MDSCs,0 to 20%
CC1=C2[C@H]3OC(=O)[C@@H](CN(C)C)[C@@H]3CC[C@@]3(C)C[C@@]23CC1 [Compound 62],activation at 1 µM,T cells / MDSCs,0 to 20%
CCC(=O)O[C@]1(C)CC[C@@]23C[C@]2(C)CC[C@@H]2[C@H](CC(=O)[C@H]2CN(C)C)[C@H]31 [Compound 63],activation at 1 µM,T cells / MDSCs,0 to 20%
C=C1C(=O)O[C@H]2[C@H]1CCC(C)=C1CC[C@@](C)(OC(=O)NC)[C@@H]12 [Compound 64],activation at 1 µM,T cells / MDSCs,> 40%
C=C1C(=O)O[C@H]2[C@H]1CCC(C)=C1CC[C@@](C)(OC(=O)NCC)[C@@H]12 [Compound 65],activation at 1 µM,T cells / MDSCs,0 to 20%
C=C1C(=O)O[C@H]2[C@H]1CCC(C)=C1CC[C@@](C)(OC(=O)NCCC)[C@@H]12 [Compound 66],activation at 1 µM,T cells / MDSCs,0 to 20%
C=C1C(=O)O[C@H]2[C@H]1CCC(C)=C1CC[C@@](C)(OC(=O)NCCCC)[C@@H]12 [Compound 67],activation at 1 µM,T cells / MDSCs,20 to 40%
C=C1C(=O)O[C@H]2[C@H]1CCC(C)=C1CC[C@@](C)(OC(=O)NC(C)C)[C@@H]12 [Compound 68],activation at 1 µM,T cells / MDSCs,0 to 20%
C=C1C(=O)O[C@H]2[C@H]1CCC(C)=C1CC[C@@](C)(OC(=O)NC(CC)CC)[C@@H]12 [Compound 69],activation at 1 µM,T cells / MDSCs,20 to 40%
